Read-outs that look alike come from different tables or passages of the source.
Legend:
[1] = test system: serotonin uptake by human blood platelets; assay: Inhibition of serotonin uptake in human blood platelets; format: cell-based; conditions: Platelet, read-out: Inhibition of serotonin uptake I50
Text: It is known that serotonin uptake by the blood platelets is a good model for the uptake of this amine by the neurons (cf. J. Tuomisto, J. Pharm., Pharmac., 26, 92 (1974). When applied to the study of medicaments, any method involving the use of blood platelets is of great interest because it allows the use of human cells, so that its estimation character is good.
"Platelets Function and Thrombosis, a Review of Methods" p. 335 (Plenum Press, London, 1972).
1. Inhibition of Serotonin Uptake
The results are expressed by inhibitory dose 50% or I50 which represents the dose of the product in micromoles per liter which reduce the rate of serotonin uptake by 50%.

[2] = test system: serotonin release, human blood platelets; assay: Serotonin release from human blood platelets; format: cell-based; conditions: for activation at 50 µM: Platelet, product concentration 5 × 10^-5 moles per liter, increase relative to controls, human blood platelets, read-out: Percent of increased serotonin release
Experimental: "Platelets Function and Thrombosis, a Review of Methods" p.
The action of the products on serotonin release is tested at a concentration of 5×10^-5 moles per liter.

[3] = test system: male mice CD1 (Charles RIVER); assay: Acute toxicity in male mice CD1, oral administration; format: in vivo; conditions: male CD1 mouse
Experimental: The acute toxicity of the products has been established in male mice CD1 (Charles RIVER) by oral administration. The compounds according to the invention are relatively not very toxic substances. For example, the product of Example 1 is non-toxic in the mouse if administered at a dose of 100 mg/kg.

| SMILES | IC50 ([1]; Homo sapiens) | activation at 50 µM [2] | Acute toxicity at 100 mg/kg [3] | IC50 ([1]; human blood platelets, dose reducing the rate of serotonin uptake by 50%) | Serotonin release (in words) ([2]; compared with p-chloroamphetamine) |
| --- | --- | --- | --- | --- | --- |
| CC(CC1CCNCC1)c1c[nH]c2ccccc12 (stereo not shown) [Example 1, 3-[2-(4-Piperidyl)-1-Methyl-Ethyl]-Indole] | 50 nM | 62% | non-toxic | – | – |
| CN(C)CCCN1c2ccccc2CCc2ccccc21 [Imipramine] | 400 nM | 12% | – | – | – |
| c1ccc2c(CCC3CCNCC3)c[nH]c2c1 [Indalpine, 3-[2-(4-piperidyl)-ethyl]-indole] | – | 22% | – | 35 nM | – |
| CC(N)Cc1ccc(Cl)cc1 (stereo not shown) [p-chloroamphetamine] | 12000 nM | 51% | – | – | induce serotonin release |

Source: patent US4416888A, “3-(2-(4-Piperidyl)-1-alkyl-ethyl)-indoles and their use as medicaments” (Pharmindustrie, priority 1981, dated 1983)
